Test results published in US20220372033A1, “ANTIBACTERIAL COMPOUNDS” (Janssen Sciences Ireland Unlimited Company, priority 2019, published 2022).
Where “and” joins values, the source holds several entries; their conditions need not be identical. Equal values may be shown once. Read-outs that look alike come from different tables or passages of the source.

What was measured:
[1] = system: Mitochondrial toxicity (Glu/Gal); assay: Mitochondrial toxicity (Glu/Gal) assay; type: cell-based; conditions: for Mitotoxicity Score: Glu/Gal assay, <3 indicates no mitotoxicity alerts
Excerpt: (§1) The compounds of the invention/examples may have advantages associated with in vitro potency, kill kinetics (i.e. bactericidal effect) in vitro, PK properties, food effect, safety/toxicity (including liver toxicity, coagulation, 5-LO oxygenase), metabolic stability, Ames II negativity, MNT negativity, aqueous based solubility (and ability to formulate) and/or cardiovascular effect e.g. on animals (e.g. anesthetized guinea pig). The data below that was generated/calculated may be obtained using standard methods/assays, for instance that are available in the literature or which may be performed by a supplier (e.g. Microsomal Stability Assay—Cyprotex, Mitochondrial toxicity (Glu/Gal) assay—Cyprotex, as well as literature CYP cocktail inhibition assays).
Compounds of the invention/examples, may therefore have the advantage that: • No in vitro cardiotoxicity is observed (for example either due to the CVS results or due to the Glu/Gal assay results, for instance low mitotoxicity (<3 in the Glu/Gal assay indicates no mitotoxicity alerts); and/or • No reactive metabolite formation is observed (e.g. GSH);

[2] = system: Mycobacterium tuberculosis (Mtb) bacilli, strain H37Ra; assay: Phenotypic assay of O2 consumption rate (OCR), Test 4, Seahorse XFe96, with Compound X; conditions: after Compound X 0.9 μM, test compound 10 μM and uncoupler CCCP 1 μM
[3] = system: Mycobacterium tuberculosis strain H37Rv ΔctaE-ΔqcrCAB; assay: microbe, parasite or virus in culture; type: cell-based; conditions: 240 h
rCaCH = assay: Cardio tox rCaCH; conditions: read-out: Cardio tox rCaCH (pIC50) (converted)
Excerpt: as §1

hERG(DOF) = hERG(DOF) (Homo sapiens, UniProt Q12809); assay: Cardio tox hERG(DOF)
Excerpt: as §1

rNaCH = assay: Cardio tox rNaCH
Excerpt: as §1

Chain of hERG(DOF) (Q12809 whole entry): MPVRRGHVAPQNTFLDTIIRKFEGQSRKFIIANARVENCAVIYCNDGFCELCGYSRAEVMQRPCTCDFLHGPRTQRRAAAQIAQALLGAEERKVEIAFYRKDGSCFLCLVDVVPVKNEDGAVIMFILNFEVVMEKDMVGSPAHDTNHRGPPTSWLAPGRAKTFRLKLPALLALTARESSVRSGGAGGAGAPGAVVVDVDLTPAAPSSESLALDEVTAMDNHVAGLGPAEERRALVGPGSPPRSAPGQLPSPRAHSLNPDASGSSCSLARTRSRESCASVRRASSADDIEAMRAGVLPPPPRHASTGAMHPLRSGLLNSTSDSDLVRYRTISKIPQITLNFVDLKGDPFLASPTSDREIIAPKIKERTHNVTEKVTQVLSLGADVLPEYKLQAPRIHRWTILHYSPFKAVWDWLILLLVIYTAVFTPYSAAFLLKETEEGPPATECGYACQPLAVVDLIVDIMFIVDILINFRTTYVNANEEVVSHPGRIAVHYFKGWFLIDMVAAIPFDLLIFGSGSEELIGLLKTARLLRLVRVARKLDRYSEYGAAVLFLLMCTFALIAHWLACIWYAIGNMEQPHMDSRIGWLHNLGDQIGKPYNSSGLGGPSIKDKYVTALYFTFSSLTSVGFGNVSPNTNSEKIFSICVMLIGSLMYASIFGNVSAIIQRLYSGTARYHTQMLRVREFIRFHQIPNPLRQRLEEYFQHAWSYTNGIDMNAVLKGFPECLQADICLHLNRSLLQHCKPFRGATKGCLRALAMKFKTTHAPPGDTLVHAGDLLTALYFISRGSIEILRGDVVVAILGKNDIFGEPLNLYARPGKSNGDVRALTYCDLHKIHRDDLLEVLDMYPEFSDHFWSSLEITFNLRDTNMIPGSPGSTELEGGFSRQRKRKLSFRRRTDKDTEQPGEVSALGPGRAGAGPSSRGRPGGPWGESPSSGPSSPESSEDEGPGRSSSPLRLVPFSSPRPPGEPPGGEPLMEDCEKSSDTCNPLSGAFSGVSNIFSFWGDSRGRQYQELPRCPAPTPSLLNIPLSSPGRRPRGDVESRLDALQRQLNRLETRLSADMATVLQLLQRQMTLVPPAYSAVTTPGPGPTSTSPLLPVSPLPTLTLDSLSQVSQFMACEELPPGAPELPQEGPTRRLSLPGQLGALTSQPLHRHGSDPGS

Row | SMILES | Mitotoxicity Score [1] | IC50 ([1]; galactose medium, read-out: IC50, gal) [µM] | IC50 ([1]; glucose medium, read-out: IC50, glu) [µM] | (ii) % OCR after cccp [2] | melting point [°C] | IC50 [3] [µM] | IC50 (rCaCH) [µM] | IC50 (hERG(DOF)) [µM] | IC50 (rNaCH) [µM]
1 | Cc1c(-c2ccc3cc(-c4cccc(OC(F)(F)F)c4)nn3c2)[nH]c2ccccc2c1=O [Compound 8] | positive | 10.8 | ≥ 200 | 93.125% | – | – | – | – | –
2 | Cc1c(-c2ccc3nc(-c4ccccc4)cn3c2)[nH]c2ccccc2c1=O [Compound 4] | – | – | – | 144.1% | 337.2 | > 100 | – | – | –
3 | CCc1nc2ccc(-c3[nH]c4ccccc4c(=O)c3C)cn2c1C(=O)NCc1ccc(OC(F)(F)F)cc1 [Compound 7] | negative | – | – | 110.6% | – | – | – | – | –
4 | Cc1c(-c2ccc3nc(-c4cccc(OC(F)(F)F)c4)cn3c2)[nH]c2ccccc2c1=O [Compound 5] | – | – | – | 159.3% | 229.9 | > 100 | > 10 | > 10 | 3.8
5 | Cc1c(-c2ccc3nc(Cc4ccc(OC(F)(F)F)cc4)cn3c2)[nH]c2ccccc2c1=O [Compound 2] | positive | – | – | 112.0% | 244.8 | 91.8 | > 10 | 1.8 | 2.6
6 | Cc1c(-c2ccc3cc(-c4cccc(OC(F)(F)F)c4)cn3c2)[nH]c2ccccc2c1=O [Compound 3] | negative | – | – | 196.1% and 131.0% | 257.8 | > 100 | > 10 | > 10 | 1.9
7 | Cc1c(-c2ccc3cc(-c4cccc(OC(F)(F)F)c4)nn3c2)[nH]c2ccccc2c1=O [Compound 1] | positive | – | – | 93.2% | 243.7 | 27.8 | 3.5 | 3.98 | 3.02
